Here are results for 27 compounds from patent US20250262201A1, “COMPOUNDS AND METHODS USEFUL FOR STABILIZING PHENYLALANINE HYDROXYLASE MUTATIONS” (Agios Pharmaceuticals, Inc., priority 2022, published 2025).

Structures can show the parent of a compound that is named as a salt. Some results are limits rather than exact numbers.

For the assay, the target named is T1, human PAH with the R408W mutation (Homo sapiens, UniProt P00439, R408W).
T1 construct: expressed in transfected cells
T1 sequence (P00439 1-452 R408W): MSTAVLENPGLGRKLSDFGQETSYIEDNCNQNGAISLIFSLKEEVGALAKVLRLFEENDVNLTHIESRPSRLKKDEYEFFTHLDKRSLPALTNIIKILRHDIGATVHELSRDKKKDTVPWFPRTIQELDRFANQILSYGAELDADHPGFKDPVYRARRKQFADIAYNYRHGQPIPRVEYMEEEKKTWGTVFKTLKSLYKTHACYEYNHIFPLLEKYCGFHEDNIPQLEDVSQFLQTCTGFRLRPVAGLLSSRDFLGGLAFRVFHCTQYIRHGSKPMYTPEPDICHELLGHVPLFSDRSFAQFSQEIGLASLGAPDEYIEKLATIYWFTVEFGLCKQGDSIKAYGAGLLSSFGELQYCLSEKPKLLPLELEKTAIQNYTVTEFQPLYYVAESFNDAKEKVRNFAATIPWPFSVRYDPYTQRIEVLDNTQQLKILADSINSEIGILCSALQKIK
Put plainly: Cell Based Phenylalanine Flux Assay. The settings on record: A375 cells expressing human R408W PAH; 24 hrs compound incubation; 13C-Tyrosine by LC-MS; average where tested multiple times; read-out: AC50.
With `O=C(c1nnc(NC2CC2)o1)N1CCc2[nH]cnc2[C@@H]1c1cc2ccccc2cn1` [Example 371, (S)-(5-(cyclopropylamino)-1,3,4-oxadiazol-2-yl)(4-(isoquinolin-3-yl)-6,7-dihydro-1H-imidazo[4,5-c]pyridin-5(4H)-yl)methanone], the AC50 – broadly, the concentration giving half of the maximal activity seen – is more than 5000 nM. The same measure for `Cc1ncc(CC(=O)N2CCc3[nH]cnc3[C@H]2c2cc3ccccc3cn2)o1` [Example 372, (R)-1-(4-(isoquinolin-3-yl)-6,7-dihydro-1H-imidazo[4,5-c]pyridin-5(4H)-yl)-2-(2-methyloxazol-5-yl)ethanone]: less than 500 nM; for `O=C(Cc1cncs1)N1CCc2[nH]cnc2[C@H]1c1cc2ccccc2cn1` [Example 373, (R)-1-(4-(isoquinolin-3-yl)-6,7-dihydro-1H-imidazo[4,5-c]pyridin-5(4H)-yl)-2-(thiazol-5-yl)ethanone]: less than 500 nM; for `O=C(Cc1ccccn1)N1CCc2[nH]cnc2[C@H]1c1cc2ccccc2cn1` [Example 374, (R)-1-(4-(isoquinolin-3-yl)-6,7-dihydro-1H-imidazo[4,5-c]pyridin-5(4H)-yl)-2-(pyridin-2-yl)ethanone]: less than 500 nM. Turning to `O=C(Cc1cnn2ccccc12)N1CCc2[nH]cnc2[C@H]1c1cc2ccccc2cn1` [Example 375, (R)-1-(4-(isoquinolin-3-yl)-6,7-dihydro-1H-imidazo[4,5-c]pyridin-5(4H)-yl)-2-(pyrazolo[1,5-a]pyridin-3-yl)ethanone], the AC50 is less than 500 nM. The same measure for `CC(F)(F)c1ncc(C(=O)N2CCc3[nH]cnc3[C@H]2c2cc3ccccc3cn2)s1` [Example 376, (R)-(2-(1,1-difluoroethyl)thiazol-5-yl)(4-(isoquinolin-3-yl)-6,7-dihydro-1H-imidazo[4,5-c]pyridin-5(4H)-yl)methanone hydrochloride]: less than 500 nM.

Turning to `O=C(c1oc(-c2ccccn2)nc1C1CC1)N1CCc2[nH]cnc2[C@H]1c1cc2ccccc2cn1` [Example 377, (R)-(4-cyclopropyl-2-(pyridin-2-yl)oxazol-5-yl)(4-(isoquinolin-3-yl)-6,7-dihydro-1H-imidazo[4,5-c]pyridin-5(4H)-yl)methanone], the AC50 is less than 500 nM. Under `CC(C)(O)c1nc(C2CC2)c(C(=O)N2CCc3[nH]cnc3[C@H]2c2cc3ccccc3cn2)o1` [Example 378, (R)-(4-cyclopropyl-2-(2-hydroxypropan-2-yl)oxazol-5-yl)(4-(isoquinolin-3-yl)-6,7-dihydro-1H-imidazo[4,5-c]pyridin-5(4H)-yl)methanone] stands less than 500 nM.

For `C[C@H]1CN(C(=O)c2cnc(-c3ccccn3)o2)[C@H](c2cc3ccccc3cn2)c2nc[nH]c21` [Example 381, ((4R,7S)-4-(isoquinolin-3-yl)-7-methyl-6,7-dihydro-1H-imidazo[4,5-c]pyridin-5(4H)-yl)(2-(pyridin-2-yl)oxazol-5-yl)methanone], the AC50 lay in the range of 1000 to 5000 nM. With `C[C@H]1CN(C(=O)c2cnc(-c3ccccn3)o2)[C@@H](c2cc3ccccc3cn2)c2nc[nH]c21` [Example 382, ((4S,7S)-4-(isoquinolin-3-yl)-7-methyl-6,7-dihydro-1H-imidazo[4,5-c]pyridin-5(4H)-yl)(2-(pyridin-2-yl)oxazol-5-yl)methanone], the AC50 is more than 5000 nM.

For `C[C@@H]1CN(C(=O)c2cnc(-c3ccccn3)o2)[C@H](c2cc3ccccc3cn2)c2nc[nH]c21` [Example 384, ((4R,7R)-4-(isoquinolin-3-yl)-7-methyl-6,7-dihydro-1H-imidazo[4,5-c]pyridin-5(4H)-yl)(2-(pyridin-2-yl)oxazol-5-yl)methanone], the concentration at half-maximal activity (AC50) was in the range of 1000 to 5000 nM. With `Cc1nc(C(C)(C)O)oc1C(=O)N1C[C@H](C)c2[nH]cnc2[C@H]1c1cc2ccccc2cn1` [Example 389, (2-(2-hydroxypropan-2-yl)-4-methyloxazol-5-yl)((4R,7S)-4-(isoquinolin-3-yl)-7-methyl-6,7-dihydro-1H-imidazo[4,5-c]pyridin-5(4H)-yl)methanone], the AC50 is less than 500 nM. Under `Cc1nc(C(C)(C)O)oc1C(=O)N1C[C@H](C)c2[nH]cnc2[C@@H]1c1cc2ccccc2cn1` [Example 390, (2-(2-hydroxypropan-2-yl)-4-methyloxazol-5-yl)((4S,7S)-4-(isoquinolin-3-yl)-7-methyl-6,7-dihydro-1H-imidazo[4,5-c]pyridin-5(4H)-yl)methanone] stands more than 5000 nM.

For `Cc1nc(C(C)(C)O)oc1C(=O)N1C[C@@H](C)c2[nH]cnc2[C@H]1c1cc2ccccc2cn1` [Example 392, (2-(2-hydroxypropan-2-yl)-4-methyloxazol-5-yl)((4R,7R)-4-(isoquinolin-3-yl)-7-methyl-6,7-dihydro-1H-imidazo[4,5-c]pyridin-5(4H)-yl)methanone], the AC50 lay within 500 to 1000 nM. Regarding `COCc1ncc(C(=O)N2CCc3[nH]cnc3[C@H]2c2cc3ccccc3cn2)s1` [Example 393, (R)-(4-(isoquinolin-3-yl)-6,7-dihydro-1H-imidazo[4,5-c]pyridin-5(4H)-yl)(2-(methoxymethyl)thiazol-5-yl)methanone], the AC50 was in the range of 500 to 1000 nM. The same measure for `COCc1ncc(C(=O)N2CCc3[nH]cnc3[C@H]2c2cc3ccccc3cn2)o1` [Example 394, (R)-(4-(isoquinolin-3-yl)-6,7-dihydro-1H-imidazo[4,5-c]pyridin-5(4H)-yl)(2-(methoxymethyl)oxazol-5-yl)methanone]: 500 to 1000 nM; for `C[C@H]1CN(C(=O)c2cnc(C(C)(C)O)o2)[C@H](c2cc3ccccc3cn2)c2nc[nH]c21` [Example 395, (2-(2-hydroxypropan-2-yl)oxazol-5-yl)((4R,7S)-4-(isoquinolin-3-yl)-7-methyl-6,7-dihydro-1H-imidazo[4,5-c]pyridin-5(4H)-yl)methanone]: 500 to 1000 nM.

Consider `C[C@H]1CN(C(=O)c2cnc(C(C)(C)O)o2)[C@@H](c2cc3ccccc3cn2)c2nc[nH]c21` [Example 396, (2-(2-hydroxypropan-2-yl)oxazol-5-yl)((4S,7S)-4-(isoquinolin-3-yl)-7-methyl-6,7-dihydro-1H-imidazo[4,5-c]pyridin-5(4H)-yl)methanone], for which the AC50 fell in the range of 1000 to 5000 nM. Turning to `C[C@@H]1CN(C(=O)c2cnc(C(C)(C)O)o2)[C@H](c2cc3ccccc3cn2)c2nc[nH]c21` [Example 398, (2-(2-hydroxypropan-2-yl)oxazol-5-yl)((4R,7R)-4-(isoquinolin-3-yl)-7-methyl-6,7-dihydro-1H-imidazo[4,5-c]pyridin-5(4H)-yl)methanone], the AC50 lay in the range of 1000 to 5000 nM. Under `C[C@H]1CN(C(=O)c2oc(C(C)(C)O)nc2C2CC2)[C@H](c2cc3ccccc3cn2)c2nc[nH]c21` [Example 399, (4-cyclopropyl-2-(2-hydroxypropan-2-yl)oxazol-5-yl)((4R,7S)-4-(isoquinolin-3-yl)-7-methyl-6,7-dihydro-1H-imidazo[4,5-c]pyridin-5(4H)-yl)methanone] stands less than 500 nM. Under `C[C@H]1CN(C(=O)c2oc(C(C)(C)O)nc2C2CC2)[C@@H](c2cc3ccccc3cn2)c2nc[nH]c21` [Example 400, (4-cyclopropyl-2-(2-hydroxypropan-2-yl)oxazol-5-yl)((4S,7S)-4-(isoquinolin-3-yl)-7-methyl-6,7-dihydro-1H-imidazo[4,5-c]pyridin-5(4H)-yl)methanone] stands 1000 to 5000 nM; under `C[C@@H]1CN(C(=O)c2oc(C(C)(C)O)nc2C2CC2)[C@@H](c2cc3ccccc3cn2)c2nc[nH]c21` [Example 401, (4-cyclopropyl-2-(2-hydroxypropan-2-yl)oxazol-5-yl)((4S,7R)-4-(isoquinolin-3-yl)-7-methyl-6,7-dihydro-1H-imidazo[4,5-c]pyridin-5(4H)-yl)methanone], 1000 to 5000 nM; under `C[C@@H]1CN(C(=O)c2oc(C(C)(C)O)nc2C2CC2)[C@H](c2cc3ccccc3cn2)c2nc[nH]c21` [Example 402, (4-cyclopropyl-2-(2-hydroxypropan-2-yl)oxazol-5-yl)((4R,7R)-4-(isoquinolin-3-yl)-7-methyl-6,7-dihydro-1H-imidazo[4,5-c]pyridin-5(4H)-yl)methanone], less than 500 nM. Regarding `Cc1nc(-c2ccccn2)oc1C(=O)N1C[C@H](C)c2[nH]cnc2[C@H]1c1cc2ccccc2cn1` [Example 403, ((4R,7S)-4-(isoquinolin-3-yl)-7-methyl-6,7-dihydro-1H-imidazo[4,5-c]pyridin-5(4H)-yl)(4-methyl-2-(pyridin-2-yl)oxazol-5-yl)methanone], the AC50 is less than 500 nM. Under `Cc1nc(-c2ccccn2)oc1C(=O)N1C[C@H](C)c2[nH]cnc2[C@@H]1c1cc2ccccc2cn1` [Example 404, ((4S,7S)-4-(isoquinolin-3-yl)-7-methyl-6,7-dihydro-1H-imidazo[4,5-c]pyridin-5(4H)-yl)(4-methyl-2-(pyridin-2-yl)oxazol-5-yl)methanone] stands more than 5000 nM; under `Cc1nc(-c2ccccn2)oc1C(=O)N1C[C@@H](C)c2[nH]cnc2[C@@H]1c1cc2ccccc2cn1` [Example 405, [(4S,7R)-4-(3-isoquinolyl)-7-methyl-1,4,6,7-tetrahydroimidazo[4,5-c]pyridin-5-yl]-[4-methyl-2-(2-pyridyl)oxazol-5-yl]methanone], 1000 to 5000 nM. With `Cc1nc(-c2ccccn2)oc1C(=O)N1C[C@@H](C)c2[nH]cnc2[C@H]1c1cc2ccccc2cn1` [Example 406, [(4R,7R)-4-(3-isoquinolyl)-7-methyl-1,4,6,7-tetrahydroimidazo[4,5-c]pyridin-5-yl]-[4-methyl-2-(2-pyridyl)oxazol-5-yl]methanone], the AC50 is less than 500 nM.
